Experimental data published in PubChem BioAssay (NCI).
Several values for one entry are separate records, joined by “and”; a condition that tells them apart may be missing. Equal entries are not always repeated.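 Grown in 96-well plates, cells were treated for 48 hours with each compound at five concentrations. Insufficient inhibition: endpoint recorded as highest concentration tested. At the GI50, growth is halved. TGI marks complete inhibition of growth.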

Columns and labels:
Assay in all cases: NCI-60 cell line screen, 48 h
MOLT-4 leukemia = system: MOLT-4 leukemia
HS 578T breast = system: HS 578T breast
RXF 393 renal = system: RXF 393 renal
SK-MEL-2 melanoma = system: SK-MEL-2 melanoma
K-562 leukemia = system: K-562 leukemia
786-0 renal = system: 786-0 renal
NCI/ADR-RES ovarian = system: NCI/ADR-RES ovarian
HCT-15 colon = system: HCT-15 colon
LOX IMVI melanoma = system: LOX IMVI melanoma
UACC-257 melanoma = system: UACC-257 melanoma

O=S(=O)(CCNCc1ccc(-c2ccc3ncnc(Nc4ccc(OCc5cccc(F)c5)c(Cl)c4)c3c2)o1)c1ccccc1
GI50 (MOLT-4 leukemia): > 25 µM | TGI (MOLT-4 leukemia): > 25 µM | GI50 (HS 578T breast): > 25000 nM | TGI (HS 578T breast): > 25 µM | GI50 (RXF 393 renal): > 25 µM | TGI (RXF 393 renal): > 25 µM | GI50 (SK-MEL-2 melanoma): > 25 µM | TGI (SK-MEL-2 melanoma): > 25 µM | GI50 (K-562 leukemia): > 25 µM | TGI (K-562 leukemia): > 25 µM | GI50 (786-0 renal): > 25 µM | TGI (786-0 renal): > 25 µM | GI50 (NCI/ADR-RES ovarian): > 25 µM | TGI (NCI/ADR-RES ovarian): > 25 µM | GI50 (HCT-15 colon): > 25000 nM | TGI (HCT-15 colon): > 25 µM | GI50 (LOX IMVI melanoma): > 25000 nM | TGI (LOX IMVI melanoma): > 25 µM | GI50 (UACC-257 melanoma): > 25000 nM | TGI (UACC-257 melanoma): > 25 µM

CCCCCCCCCCCCCCCCCC(=O)OCC(COC1OC(CS(=O)(=O)O)C(O)C(O)C1O)OC(=O)CCCCCCCCCCCCCCCCC (stereo not drawn)
TGI (MOLT-4 leukemia): > 100 µM | TGI (HS 578T breast): > 100 µM | TGI (RXF 393 renal): > 100 µM | TGI (K-562 leukemia): > 100 µM | TGI (786-0 renal): > 100 µM | TGI (NCI/ADR-RES ovarian): > 100 µM | TGI (HCT-15 colon): > 100 µM | TGI (LOX IMVI melanoma): > 100 µM | TGI (UACC-257 melanoma): > 100 µM

S=C(c1ccc2c(c1)OCO2)N1CCN(c2cccc(Cl)c2)CC1
GI50 (MOLT-4 leukemia): 2.28 µM | TGI (MOLT-4 leukemia): > 55.8 µM | GI50 (HS 578T breast): 391 nM | TGI (HS 578T breast): 3.54 µM | GI50 (RXF 393 renal): 10.9 µM | TGI (RXF 393 renal): 40.8 µM | GI50 (SK-MEL-2 melanoma): > 100 µM | TGI (SK-MEL-2 melanoma): > 100 µM | GI50 (K-562 leukemia): 0.318 µM | TGI (K-562 leukemia): > 41.8 µM | GI50 (786-0 renal): 1.22 µM | TGI (786-0 renal): > 59.6 µM | GI50 (NCI/ADR-RES ovarian): 0.635 µM | TGI (NCI/ADR-RES ovarian): > 100 µM | GI50 (HCT-15 colon): 524 nM | TGI (HCT-15 colon): > 69.3 µM | GI50 (LOX IMVI melanoma): 1140 nM | TGI (LOX IMVI melanoma): > 100 µM | TGI (UACC-257 melanoma): > 21.2 µM

Brc1ccccc1C=NC12CC3CC(CC(C3)C1)C2
TGI (MOLT-4 leukemia): > 91.1 µM | TGI (HS 578T breast): > 100 µM | TGI (RXF 393 renal): > 100 µM | TGI (SK-MEL-2 melanoma): > 100 µM | TGI (K-562 leukemia): > 100 µM | TGI (786-0 renal): > 100 µM | TGI (NCI/ADR-RES ovarian): > 100 µM | TGI (HCT-15 colon): > 100 µM | TGI (LOX IMVI melanoma): > 100 µM | TGI (UACC-257 melanoma): > 100 µM

N#Cc1cc(N(CCCl)CCCl)c([N+](=O)[O-])cc1[N+](=O)[O-]
TGI (MOLT-4 leukemia): > 100 µM | TGI (HS 578T breast): > 100 µM | TGI (SK-MEL-2 melanoma): > 100 µM | TGI (K-562 leukemia): > 100 µM | TGI (786-0 renal): > 100 µM | TGI (NCI/ADR-RES ovarian): > 100 µM | TGI (HCT-15 colon): > 100 µM | TGI (LOX IMVI melanoma): > 100 µM | TGI (UACC-257 melanoma): > 100 µM

OCC1OC(n2cnc3c2NC=NC[C@H]3O)CC1O (stereo partly drawn)
GI50 (MOLT-4 leukemia): > 588 µM | TGI (MOLT-4 leukemia): 469 µM and > 588 µM | TGI (HS 578T breast): > 500 µM | GI50 (RXF 393 renal): > 588 µM | TGI (RXF 393 renal): 500 µM and > 588 µM | GI50 (SK-MEL-2 melanoma): > 588 µM | TGI (SK-MEL-2 melanoma): 500 µM and > 588 µM | GI50 (K-562 leukemia): > 588 µM | TGI (K-562 leukemia): 474 µM and > 588 µM | GI50 (786-0 renal): > 588 µM | TGI (786-0 renal): 500 µM and > 588 µM | TGI (NCI/ADR-RES ovarian): 500 µM | GI50 (HCT-15 colon): > 588000 nM | TGI (HCT-15 colon): 500 µM and > 588 µM | TGI (LOX IMVI melanoma): 500 µM | TGI (UACC-257 melanoma): 468 µM

NC1=CC(=O)c2nc3ccccc3c3ccnc1c23
GI50 (MOLT-4 leukemia): 3.21 µM | TGI (MOLT-4 leukemia): > 100 µM | GI50 (HS 578T breast): 766 nM | TGI (HS 578T breast): 5.73 µM | GI50 (RXF 393 renal): 4.78 µM | TGI (RXF 393 renal): 17.2 µM | GI50 (SK-MEL-2 melanoma): 9.45 µM | TGI (SK-MEL-2 melanoma): 32.1 µM | GI50 (K-562 leukemia): 4.26 µM | TGI (K-562 leukemia): > 100 µM | GI50 (786-0 renal): 7.49 µM | TGI (786-0 renal): > 66.5 µM | GI50 (NCI/ADR-RES ovarian): 7.33 µM | TGI (NCI/ADR-RES ovarian): 69.4 µM | GI50 (HCT-15 colon): 622 nM | TGI (HCT-15 colon): > 100 µM | GI50 (LOX IMVI melanoma): 219 nM | TGI (LOX IMVI melanoma): 4.22 µM | GI50 (UACC-257 melanoma): 2370 nM | TGI (UACC-257 melanoma): 20 µM
